These molecules were tested against T1, AGE-BSA (Bos taurus, UniProt P02769) (assay: In-vitro screening for AGE-breaking activity (ELISA on 16 weeks AGE-BSA)). Conditions: Concentration 1 mM; 10µg/ml 16 weeks AGE-BSA, 37°C, 24 hours.
T1 construct: Bovine serum albumin (fraction V) (BSA); from tissue; host or cells: bovine serum (fraction V albumin)
T1 sequence (P02769 25-607): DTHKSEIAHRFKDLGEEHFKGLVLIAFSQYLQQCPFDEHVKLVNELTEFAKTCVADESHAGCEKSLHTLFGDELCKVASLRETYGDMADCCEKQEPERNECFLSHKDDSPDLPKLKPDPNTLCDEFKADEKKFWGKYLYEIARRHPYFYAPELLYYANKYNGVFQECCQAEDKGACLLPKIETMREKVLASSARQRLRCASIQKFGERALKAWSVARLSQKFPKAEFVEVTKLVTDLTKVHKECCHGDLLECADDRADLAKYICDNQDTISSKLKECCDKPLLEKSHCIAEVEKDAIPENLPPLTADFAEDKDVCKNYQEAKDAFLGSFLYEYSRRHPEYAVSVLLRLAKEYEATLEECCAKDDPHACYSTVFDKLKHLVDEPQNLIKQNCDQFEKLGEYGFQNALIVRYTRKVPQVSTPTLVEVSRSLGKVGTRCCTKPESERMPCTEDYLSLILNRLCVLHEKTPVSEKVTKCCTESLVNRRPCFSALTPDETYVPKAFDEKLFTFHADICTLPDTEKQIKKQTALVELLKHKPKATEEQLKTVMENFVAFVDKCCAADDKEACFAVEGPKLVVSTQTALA
Type: biochemical, bovine
Protocol: • Materials: • Bovine serum albumin (fraction V) (BSA) • Glucose, analytical grade • Phosphate buffered saline (PBS) • Equipment: • Microplate ELISA Reader - Spectramax Plus (Molecular Devices, USA) • Microplate washer, (Bio -Tec Instruments, USA) • pH meter Methods of experiment: Elisa (Enzyme Linked Immunosorbent Assay) 160 mg/ml of protein, bovine serum albumin, BSA and 1.6M glucose sugar were dissolved in phosphate buffered saline, PBS. Sodium azide was added at 0.02% concentration as a preservative. The solution was filtered asceptically through a 0.22 µM filter and kept for aging at 37°C for 16 weeks. After 16 weeks the solution was dialyzed against PBS, aliquoted and stored at - 20°C.
To determine the AGE breaking activity, 10µg/ml of the 16 weeks AGE-BSA was incubated with different concentrations of the test compounds at 37°C for 24 hours and AGE breaking activity of the test compounds by ELISA was determined. […] Different concentrations of 16 weeks AGE-BSA were coated on a microtitre plate as standard. Each concentration is coated in triplicates. • 2. The test samples were coated on microtitre plate at a concentration of 5 ng. to 20 ng per well in triplicates. • 3. The plate was incubated at 37°C for one hour. • 4. After incubation the plate was washed with PBST (PBS with 0.05% Tween 20). • 5. Blocking with 5% skimmed milk in PBS at 37°C for one hour was done. • 6. The plate was washed with PBST. • 7. Primary antibody against AGE-BSA was added and the plate is incubated at 37°C for one hour. • 8. The plate was washed with PBST • 9. Secondary antibody anti rabbit HRPO (Horse-Radish Per Oxidase) conjugate was added and the plate is incubated at 37°C for one hour. • 10. The plate was washed with PBST. • 11. Colour development with OPD (orthophenylenediamine dihydrochloride) and hydrogen peroxide was done. • 12. OD (optical density) at (450nm reading - 620nm reading) was measured after incubation at 37°C for 15 minutes with Microplate ELISA Reader.
The breaker activity of the compounds were determined by the following formula: % Breaker activity =(OD450-620 Control - OD450-620 Test)/(OD450-620 Control)x 100 [formula]
Work on Cc1ccc(C(=O)NNS(C)(=O)=O)c[n+]1CC(=O)c1cccs1 [Compound 39, 1-(2-thien-2'-yl-2-oxoethyl)-3-(methanesulfonyl hydrazinocarbonyl) -6-methyl pyridinium bromide] yielded a % breakage of AGE-BSA crosslinks at 1000 µM of 77.7%.
NC(=O)c1cc(C(=O)NNC(=O)c2ccc[n+](CC(=O)c3cccs3)c2)c[n+](CC(=O)c2cccs2)c1 [Compound 42, 1-[1-(2-thien-2'-yl-2-oxoethyl)-5-aminocarbonyl-3-carbonylpyridinium]-2-[1-(2-Thien-2'-yl-2-oxoethyl)-3-carbonylpyridinium] hydrazine dichloride] showed a % breakage of AGE-BSA crosslinks at 1000 µM of 95.4%.
Molecule CS(=O)(=O)NNC(=O)c1ccc[n+](CC(=O)c2ccc([N+](=O)[O-])s2)c1 [Compound 49, 1-2-(5-nitro-thien-2-yl)-2-oxoethyl)-3-(methanesulfonyl hydrazino carbonyl) pyridinium chloride] has a % breakage of AGE-BSA crosslinks at 1000 µM of 42%.

Same assay, conditions: Concentration 2.5 mM; 10µg/ml 16 weeks AGE-BSA, 37°C, 24 hours
In the case of Cc1ccc(C(=O)NNC(=O)c2ccc[n+](CC(=O)c3cccs3)c2)c[n+]1CC(=O)c1cccs1 [Compound 31, 1-[1-(2-thien-2'-yl-2-oxoethyl)-6-methyl-3-carbonylpyridinium]-2-[1-(2-Thien-2'-yl-2-oxoethyl)-3-carbonylpyridinium] hydrazine dichloride], the % breakage of AGE-BSA crosslinks at 2500 µM is reported as 85.7%.
Molecule CS(=O)(=O)NNC(=O)c1cc(Br)c[n+](CC(=O)c2cccs2)c1 [Compound 35, 1-(2-thien-2'-yl-2-oxoethyl)-3-(methanesulfonyl hydrazinocarbonyl)-5-bromo pyridinium bromide] has a % breakage of AGE-BSA crosslinks at 2500 µM of 29.4%.

Same assay, conditions: Concentration 10 mM; 10µg/ml 16 weeks AGE-BSA, 37°C, 24 hours
With COCCOC(=O)c1ccc[n+](CC(=O)c2ccc(Cl)cc2Cl)c1 [Compound 4, 1-(2-(2',4'-dichlorophenyl)-2-oxoethyl)-3-(2(methoxy)ethyloxycarbonyl) pyridinium bromide] the % breakage of AGE-BSA crosslinks at 10000 µM was 13%.
With O=C(C[n+]1cccc(C(=O)NCCOC(=O)c2ccccc2)c1)Nc1ccccc1 [Compound 5, 1-(2-phenylamino-2-oxoethyl)-3-((benzoyloxy)ethylaminocarbonyl) pyridinium chloride] the % breakage of AGE-BSA crosslinks at 10000 µM was 37%.
For O=C(NNC(=O)c1ccc[n+](CC(=O)c2ccco2)c1)c1ccc[n+](CC(=O)c2ccco2)c1 [Compound 14, N, N' - bis [3-carbonyl-1-(2-furan-2'-yl-2-oxoethyl)pyridinium] hydrazine dibromide], the % breakage of AGE-BSA crosslinks at 10000 µM was 14%.
In the case of O=C(NNC(=O)c1cccnc1Cl)c1ccc[n+](CC(=O)c2cccs2)c1 [Compound 24, 1-(2-thien-2'yl-2-oxoethyl)-3-(2-(2-chloro-3-pyridoylhydrazinocarbonyl) -pyridinium chloride], the % breakage of AGE-BSA crosslinks at 10000 µM is reported as 12.5%.
CS(=O)(=O)NNC(=O)c1ccc[n+](CC(=O)c2cccs2)c1 [Compound 27, 1-(2-thien-2'-yl-2-oxoethyl)-3-(methanesulfonyl hydrazinocarbonyl) pyridinium chloride] showed a % breakage of AGE-BSA crosslinks at 10000 µM of 17.5%.
For COCCNC(=O)c1cc(Br)c[n+](CC(=O)c2cccs2)c1 [Compound 29, 1-(2-thien-2'-yl-2-oxoethyl)-3-((2-methoxyethyl)aminocarbonyl)-5-bromo pyridinium chloride], the % breakage of AGE-BSA crosslinks at 10000 µM was 32.4%.
With CC(C)S(=O)(=O)NNC(=O)c1ccc[n+](CC(=O)c2cccs2)c1 [Compound 32, 1-(2-thien-2'-yl-2-oxoethyl)-3-(isopropylsulfonyl hydrazinocarbonyl) pyridinium bromide] the % breakage of AGE-BSA crosslinks at 10000 µM was 31.4%.
Molecule CCOC(=O)NNC(=O)c1ccc[n+](CC(=O)c2cccs2)c1 [Compound 36, 1-(2-thien-2'-yl-2-oxoethyl)-3-(ethoxycarbonyl hydrazinocarbonyl) pyridinium bromide] has a % breakage of AGE-BSA crosslinks at 10000 µM of 33.4%.
Cc1ccc(C(=O)C[n+]2cccc(C(=O)NNC(=O)c3ccc[n+](CC(=O)c4ccc(C)s4)c3)c2)s1 [Compound 40, N,N'-bis[3-carbonyl-1-(2-(5-methyl-thien-2-yl)-2-oxoethyl)pyridinium] hydrazine dichloride] showed a % breakage of AGE-BSA crosslinks at 10000 µM of 82%.
CCOC(=O)C1CCCN1C(=O)C[n+]1cccc(C(=O)NNC(=O)c2ccc[n+](CC(=O)N3CCCC3C(=O)OCC)c2)c1 (stereo not drawn) [Compound 41, N,N'-bis[3-carbonyl-1-(2-(2-ethoxycarbonylpyrrolidin-1-yl)-2-oxoethyl)pyridinium] hydrazine dichloride] showed a % breakage of AGE-BSA crosslinks at 10000 µM of 20.3%.
For O=C(NNC(=O)c1ccc[n+](CC(=O)c2ccc(Cl)s2)c1)c1ccc[n+](CC(=O)c2ccc(Cl)s2)c1 [Compound 44, N,N'-bis[3-carbonyl-1-(2-(5-chloro-thien-2-yl)-2-oxoethyl)pyridinium] hydrazine dichloride], the % breakage of AGE-BSA crosslinks at 10000 µM was 78.4%.
For O=C(NNS(=O)(=O)C(F)(F)F)c1ccc[n+](CC(=O)c2cccs2)c1 [Compound 50, 1-(2-thien-2'-yl-2-oxoethyl)-3-(trifluoromethanesulfonyl hydrazinocarbonyl) - pyridinium bromide], the % breakage of AGE-BSA crosslinks at 10000 µM was 92.6%.

Same assay, conditions: Concentration 25 mM; 10µg/ml 16 weeks AGE-BSA, 37°C, 24 hours; read-out: % Breakage
Molecule COCCOC(=O)c1ccc[n+](CC(=O)c2ccc(Cl)cc2Cl)c1 [Compound 4, 1-(2-(2',4'-dichlorophenyl)-2-oxoethyl)-3-(2(methoxy)ethyloxycarbonyl) pyridinium bromide] has an inhibition at 25000 µM of 41%.
O=C(C[n+]1cccc(C(=O)NCCOC(=O)c2ccccc2)c1)Nc1ccccc1 [Compound 5, 1-(2-phenylamino-2-oxoethyl)-3-((benzoyloxy)ethylaminocarbonyl) pyridinium chloride] gave an inhibition at 25000 µM of 90%.

Same assay, conditions: read-out: % Breakage
For COCCNC(=O)c1ccc[n+](CC(=O)c2ccc(Cl)cc2Cl)c1 [Compound 20, 1-(2',4'-dichloro-phenyl-2-oxoethyl)-3-(2-methoxyethylaminocarbonyl)-pyridinium bromide], the inhibition at 5000 µM was 17.7%.
COCCNC(=O)c1ccc[n+](CC(=O)NC2CC2)c1 [Compound 22, 1-(2-cyclopropylamino-2-oxoethyl)-3-(2-methoxyethylaminocarbonyl)-pyridinium chloride] gave an inhibition at 10000 µM of 12.4%.
CC(C)NC(=O)C[n+]1cccc(C(=O)NNS(C)(=O)=O)c1 [Compound 25, 1-(2-isopropylamino-2-oxoethyl)-3-(2-methylsulfonylhydrazinocarbonyl) -pyridinium chloride] was tested, and the inhibition at 10000 µM was 10.8%.
For CS(=O)(=O)NNC(=O)c1ccc[n+](CC(=O)N2CCC(Cc3ccccc3)CC2)c1 [Compound 33, 1-(2-(4-benzylpiperidin-1-yl)-2-oxoethyl)-3-(methanesulfonyl hydrazinocarbonyl) pyridinium chloride], the inhibition at 10000 µM was 20.9%.
In the case of CCOC(=O)C1CCCN1C(=O)C[n+]1cccc(C(=O)NNS(C)(=O)=O)c1 (stereo not drawn) [Compound 34, 1-(2-(2-ethoxycarbonylpyrrolidin-1-yl)-2-oxoethyl)-3-(methanesulfonyl hydrazinocarbonyl) pyridinium chloride], the inhibition at 10000 µM is reported as 25.3%.
CS(=O)(=O)NNC(=O)c1ccc[n+](CC(=O)c2ccc(Cl)s2)c1 [Compound 37, 1-(2-(5-chloro-thien-2-yl)-2-oxoethyl)-3-(methanesulfonyl hydrazinocarbonyl) pyridinium bromide] was tested, and the inhibition at 10000 µM was 40.9%.
For O=C(NNC(=O)c1ccc[n+](CC(=O)c2cc([N+](=O)[O-])cs2)c1)c1ccc[n+](CC(=O)c2cc([N+](=O)[O-])cs2)c1 [Compound 38, N,N'-bis[3-carbonyl-1-(2-(4-nitro-thien-2-yl)-2-oxoethyl)pyridinium] hydrazine dichloride], the inhibition at 10000 µM was 75.9%.
Molecule CCOC(=O)C1CSCN1C(=O)C[n+]1cccc(C(=O)NNS(C)(=O)=O)c1 (stereo not drawn) [Compound 43, 1-(2-(4-carbethoxy-thiazolidin-3-yl)-2oxoethyl)-3-(methanesulfonyl hydrazinocarbonyl) pyridinium chloride] has an inhibition at 10000 µM of 25.1%.
Cc1ccc(C(=O)C[n+]2cccc(C(=O)NNS(C)(=O)=O)c2)s1 [Compound 45, 1-(2-(5-methyl-thien-2-yl)-2-oxoethyl)-3-(methanesulfonyl hydrazinocarbonyl) pyridinium chloride] gave an inhibition at 10000 µM of 25.2%.
CS(=O)(=O)NNC(=O)c1ccc[n+](CC(=O)c2cc([N+](=O)[O-])cs2)c1 [Compound 46, 1-(2-(4-nitro-thien-2-yl)-2-oxoethyl)-3-(methanesulfonyl hydrazinocarbonyl) pyridinium bromide] showed an inhibition at 10000 µM of 60.9%.
With O=C(C[n+]1cccc(C(=O)NNc2ccccc2)c1)Nc1ccccc1 [Compound 47, 1-(2-phenylamino-2-oxoethyl)-3-(phenyl hydrazinocarbonyl) pyridinium chloride] the inhibition at 2500 µM was 68.3%.
O=C(C[n+]1ccc(C(=O)NCCOC(=O)c2ccccc2)cc1)Nc1ccccc1 [Compound 48, 1-(2-phenylamino-2-oxoethyl)-4-[2-(benzoyloxy)ethylaminocarbonyl] pyridinium chloride] gave an inhibition at 10000 µM of 19.1%.
Work on O=C(C[n+]1ccsc1)c1ccccc1 [PTB, N- phenacyl thiazolium bromide, reference compound] yielded an inhibition at 10000 µM of 27% and an inhibition at 20000 µM of 47%.

— patent EP1243581A1, “Pyridinium compounds useful for the treatment of AGE-related diseases” (Torrent Pharmaceuticals Ltd, priority 2001, dated 2002)
